One assay relates to serotonin (5-HT). Put plainly: Serotonin (5-HT) levels in mice treated with Aβ icv (FIG. 5a). In kind it is in vivo. How it is done: (§1) The Aβ1-42, obtained from Tocris (Bristol, UK), was dissolved in sterile double-distilled pyrogenic-free water, as vehicle, to obtain a final concentration 4 μM [Colaianna M et al. 2010]. Mice were anesthetized with a solution (0.85 in ml/kg, i.p.), containing ketamine (Sigma Aldrich, Milan, Italy, 100 mg/10 ml), xylazine (Sigma Aldrich, Milan, Italy, 100 mg/10 ml) and acepromazine (prequillant, ATI Azienda Terapeutica Veterinaria Srl, 10 mg/10 ml) dissolved in saline solution. […] At the time of dissection, the correct needle track was assessed. […]
All behavioral experiments were conducted at 5 or 30 min after sublingual administrations of βBA or vehicle in mice treated with SHAM or AP. Based on the observed behavioral results, neurochemical and biochemical quantifications were performed 30 min after administration of βCP, FE, and βBA or vehicle in SHAM- or Aβ-treated mice. […]
5-HT, noradrenaline (NA), and KYN levels were measured in the PFC and HIPP of mice by HPLC coupled with an electrochemical detector (Ultimate ECD, Thermo Scientific Dionex, Milan, Italy) as already reported [Francavilla M et al. 2012, Morgese M G et al. 2016]. […] GLU concentrations were determined by HPLC coupled with fluorescence detection (emission length 460 nm; excitation length 340 nm), as previously published [Francavilla M et al. 2012]. […]

For the next assay, the system named is PSD-95. Put plainly: PSD-95 in PFC and HIPP of mice treated with Aβ icv, Western blotting (FIG. 12). In kind it is in vivo. The settings on record: after 7 days. How it is done:
The βCP, FE, βBA and HA4 influence on prefrontal and hippocampal synaptic plasticity was evaluated using anti-PSD-95, anti-synaptophysin, anti-CaMKII antibodies.
as §1
The total amount of proteins was measured in homogenates by using Pierce BCA Assay (Thermo Fisher Scientific, Cleveland, OH, USA). […] After HRP-conjugated specific antibody incubation, ECL reagent (Bio-Rad Laboratories Inc., Segrate (MI), Italy) was added to the immune complex and chemiluminescence was detected by ChemiDoc MP system (Bio-Rad Laboratories Inc., Segrate (MI), Italy). Optical densities of the bands were measured using Image J software (http://rsb.info.nih.gov/ij/ accessed on 15 Mar. 2021) and normalized against bands relative to -actin (1:5,000, Abcam, Cambridge, UK).
A general note: In western blotting, separated proteins are transferred to a membrane and probed.

Another assay has as its target T1, catG (cathepsin G) (Homo sapiens, UniProt P08311).
T1 sequence (P08311 21-244): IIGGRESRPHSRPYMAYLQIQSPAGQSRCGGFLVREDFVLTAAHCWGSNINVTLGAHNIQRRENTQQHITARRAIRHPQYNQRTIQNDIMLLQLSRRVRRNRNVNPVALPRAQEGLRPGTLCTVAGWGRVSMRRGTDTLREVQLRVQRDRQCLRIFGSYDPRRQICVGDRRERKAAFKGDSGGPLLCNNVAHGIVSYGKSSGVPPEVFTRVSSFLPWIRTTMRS
The settings on record: in vitro; read-out: IC50 catG (cathepsin G) inhibition; cited from earlier work.

Here are results for one molecule from patent US20260115162A1, “COMPOSITION OR ASSOCIATION OF COMPOUNDS PREFERABLY FOR USE IN THE TREATMENT OF NERVOUS DISEASES IN PARTICULAR NEURODEGENERATIVE DISEASES, METHOD FOR THE PREPARATION OF SUCH COMPOSITION OR ASSOCIATION OF COMPOUNDS AND USES THEREOF” (PHARMACEUTICA SAN MARCO S.R.L., priority 2022, published 2026).

The term IC50 denotes the concentration needed to halve the response being measured.

The structures appear in SMILES notation.

As to `C[C@H]1[C@H](C)CC[C@]2(C)CC[C@]3(C)C(=CC[C@@H]4[C@@]5(C)CC[C@@H](O)[C@](C)(C(=O)O)[C@@H]5CC[C@]43C)[C@H]12` [βBA, β-boswellic acid], the “Serotonin (5-HT) levels” value in the assay with serotonin (5-HT) was “progressively greater serotonergic activity”. Further, in the assay with PSD-95, the PSD-95 tissue concentration result is “remove Aβ-induced alterations in a progressive manner”. Besides, the IC50 on catG (cathepsin G) is 800 nM.
